Test results: article PMC11487390, “Design and Synthesis of 1,3-Diarylpyrazoles and Investigation of Their Cytotoxicity and Antiparasitic Profile” (International Journal of Molecular Sciences, 2024)
Where a name gives a salt, the structure may show the parent alone. Read-outs that look alike come from different tables or passages of the source.

Tests used:
[1] = tested on: T. b. brucei Squib 427 strain; assay: T. b. brucei growth assay (resazurin, 3 days); type: cell-based, Trypanosoma brucei brucei; details: read-out: T. b. bruc. (EC50), 3 days
Outline: (§1)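 Bloodstream parasites in HMI-9 with 10% FCS at 37 °C, 5% CO2, 1.5 × 10^4 (T. b. brucei) or 4 × 10^3 (T. b. rhodesiense) per well, exposed to 10 concentrations from 64 µM to 0.2 nM. After 3 days resazurin added, fluorescence read after 24 h or 6 h respectively; EC50 derived.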

[2] = tested on: Trypanosoma cruzi Tulahuen CL2 strain; assay: Intracellular T. cruzi assay in MRC-5 cells (β-galactosidase/CPRG, 7 days); type: cell-based; details: intracellular in MRC-5 cells
Outline: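 MRC-5SV2 fibroblasts infected with β-galactosidase-expressing T. cruzi Tulahuen CL2 and exposed to compounds (10 concentrations, 64 µM to 0.2 nM; DMSO <1%) for 7 days at 37 °C, 5% CO2. Parasite growth read by CPRG absorbance at 540 nm after 4 h versus untreated infected controls; EC50 calculated.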

[3] = tested on: T. b. rhodesiense STIB-900 strain; assay: T. b. rhodesiense growth assay (resazurin, 3 days); type: cell-based, Trypanosoma brucei rhodesiense; details: read-out: T. b. rhod. (EC50), 3 days
Outline: as §1

[4] = tested on: L. infantum MHOM/MA(BE)/67 strain; assay: L. infantum intracellular amastigote assay in PMM (Giemsa, 5 days); type: cell-based, Leishmania infantum
Outline: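 Primary mouse peritoneal macrophages were infected with spleen-derived amastigotes (3 × 10^4 PMM + 4.5 × 10^5 parasites/well), and compound was added 2 h post-infection. Ten concentrations (64 µM to 0.2 nM; DMSO <1%) were incubated 5 days at 37 °C, 5% CO2. Giemsa-stained amastigotes per macrophage were counted microscopically to give EC50.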

[5] = Cytotoxicity assay, MRC-5SV2 cells, resazurin, 3 days; type: cell-based; details: human, MRC-5SV2 human lung fibroblast cells, MRC-5 cells, highest concentration 64 µM
Outline: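 MRC-5SV2 fibroblasts (1.5 × 10^5 cells/mL, MEM, 5% FCS) exposed 3 days at 37 °C, 5% CO2 to 64–0.25 µM (4-fold), DMSO <1%. Viability by resazurin (10 µg mL^−1, 4 h) fluorescence; EC50 interpolated from flanking points around 50% inhibition.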

[6] = tested on: primary mouse macrophages (PMMs); assay: Cytotoxicity against primary peritoneal mouse macrophages (PMM); type: cell-based; details: Macrophage
Protocol: The series of final products (13–69) was investigated in vitro on the human fetal lung fibroblast cell line MRC-5 (Table 1) to assess cytotoxicity toward normal (i.e., non-malignant) human cells. […] As explained earlier, these are important pathogens for humans or cattle (T. b. brucei) and a persistent need for new therapeutics exists for these parasites. As a part of the antiparasitic tests, cytotoxicity against primary mouse macrophages (PMMs) was also evaluated. These murine cells serve as host cells for parasites in the L. infantum assay. Therefore, the murine macrophage assay not only offers additional cytotoxicological insight but is also essential to interpreting the readout of the L. infantum assay.
The MRC-5SV2 human lung fibroblast cell line was cultured in MEM + Earle’s salts-medium, supplemented with 2 mM L-glutamine, 16.5 mM NaHCO3, and 5% inactivated fetal calf serum. For evaluating the antileishmanial activity, the L. infantum MHOM/MA(BE)/67 strain was used. This strain was maintained in a Golden hamster (Mesocricetus auratus). Amastigotes were collected from the spleen of an infected donor hamster using differential centrifugation. Primary peritoneal mouse macrophages were used as host cells and were collected 2 days after peritoneal stimulation with a 2% potato starch suspension. For the intracellular T. cruzi assays, the Tulahuen CL2 strain was used that expresses β-galactosidase. The strain was maintained in MRC-5SV2 cells in MEM medium. The T. b. brucei Squib 427 strain or T. b. rhodesiense STIB-900 strain was used for screening against the extracellular African trypanosomes. The strains were maintained in Hirumi’s Modified Iscove’s medium-9 (HMI-9), supplemented with 10% inactivated fetal calf serum. All cultures and assays were performed at 37 °C with 5% CO2.
Primary peritoneal mouse macrophages (PMMs) were prepared in RPMI-1640 medium, supplemented with 2 mM L-glutamine, 16.5 mM NaHCO3, and 5% inactivated fetal calf serum. The macrophages are infected after 48 h with spleen-derived L. infantum amastigotes (3 × 10^4 PMM + 4.5 × 10^5 parasites/well). The compounds were added after 2 h of infection. After 5 days incubation, parasite burdens (mean number of amastigotes/macrophage) were assessed microscopically after staining with a 10% Giemsa solution and EC50 values were calculated.

[7] = target: Toll-like receptor 9 (TLR9); parameters: method as in PMID 27537371; details: readout of a cellular assay, cited from earlier work
[8] = Trypanosoma cruzi, TULAHUEN, MRC5, 168 h
[9] = Trypanosoma brucei, RHODESIENSE, 72 h
[10] = Leishmania infantum, 120 h, amastigotes in PMM, 5 days, read-out: L. inf. (EC50)

## c1ccc(-n2cc(CNCCN3CCCC3)c(-c3ccc4c(c3)OCCO4)n2)cc1 [Compound 26, N-((3-(2,3-dihydrobenzo[b][1,4]dioxin-6-yl)-1-phenyl-1H-pyrazol-4-yl)methyl)-2-(pyrrolidin-1-yl)ethan-1-amine dihydrochloride]
[1]
  EC50: 1.52 µM
[1]; listed as 26/HIT 8
  EC50: < 10 µM
[2]; [8]
  EC50: < 10 µM
[2]
  EC50: 7.92 µM
[3]
  EC50: 1.75 µM
[3]; listed as 26/HIT 8
  EC50: < 10 µM
[4]; Leishmania infantum, 120 h, read-out: L. inf. (EC50, µM), amastigotes in PMM, 5 days
  EC50: < 10 µM
[4]; read-out: L. inf. (EC50), amastigotes in PMM, 5 days
  EC50: 8.3 µM
[5]
  EC50 at 3 days: 21.7 µM
[6]
  EC50: 32 µM
[7]; read-out: EC50 for TLR9 antagonism
  EC50: 3.16 µM

## CN(C)CCCNCc1cn(-c2ccccc2)nc1-c1ccc2c(c1)OCCO2.Cl.Cl [Compound 29, N^1-((3-(2,3-dihydrobenzo[b][1,4]dioxin-6-yl)-1-phenyl-1H-pyrazol-4-yl)methyl)-N^3,N^3-dimethylpropane-1,3-diamine dihydrochloride]
[5]
  EC50 at 3 days: 5.14 µM
[7]
  EC50 for TLR9 antagonism: grossly comparable potency

## CNC(=O)c1cc(Oc2ccc(NC(=O)c3cn(-c4ccccc4)nc3-c3ccc4c(c3)OCCO4)cc2)ccn1 [Compound 38, 4-(4-(3-(2,3-dihydrobenzo[b][1,4]dioxin-6-yl)-1-phenyl-1H-pyrazole-4-carboxamido)phenoxy)-N-methylpicolinamide]
[1]; Trypanosoma brucei, 72 h
  EC50: 8 µM
[2]; [8]
  EC50: > 64 µM
[3]; [9]
  EC50: 1.75 µM
[4]; [10]
  EC50: > 64 µM
[5]
  EC50 at 3 days: 6.35 µM
[6]
  EC50: > 64 µM

## O=C(c1cn(-c2ccccc2)nc1-c1ccc2c(c1)OCCO2)N1CCCC1 [Compound 39, (3-(2,3-dihydrobenzo[b][1,4]dioxin-6-yl)-1-phenyl-1H-pyrazol-4-yl)(pyrrolidin-1-yl)methanone]
[1]; Trypanosoma brucei, 72 h
  EC50: > 64 µM
[2]; [8]
  EC50: 8.8 µM
[3]; [9]
  EC50: 37.6 µM
[4]; [10]
  EC50: 38.1 µM
[5]
  EC50 at 3 days: 23.2 µM
[6]
  EC50: > 64 µM

## O=C(c1cn(-c2ccccc2)nc1-c1ccc2c(c1)OCCO2)N1CCOCC1 [Compound 40, (3-(2,3-dihydrobenzo[b][1,4]dioxin-6-yl)-1-phenyl-1H-pyrazol-4-yl)(morpholino)methanone]
[1]; Trypanosoma brucei, 72 h
  EC50: > 64 µM
[2]; [8]
  EC50: > 64 µM
[3]; [9]
  EC50: > 64 µM
[4]; [10]
  EC50: > 64 µM
[5]
  EC50 at 3 days: > 64 µM
[6]
  EC50: > 64 µM
